The numbers were not newly measured in patent US20260248756A1, “FAT COMPOSITION COMPRISING TRIBUTYRIN AND TRICAPROIN AND ITS USE IN MILK REPLACERS” (Nutreco IP Assets B.V., priority 2023, published 2026), which cites them from elsewhere.

Regarding `CCCC(=O)OCC(COC(=O)CCC)OC(=O)CCC` [tributyrin], the “total intake of solid feed” value (postweaning, tributyrin up to 0.6 wt % of dry matter in CMR) is “increased total intake of solid feed”. Besides, the “body weight compared with calves not fed tributyrin” value (weaning and postweaning period, 0.6 wt % of dry matter tributyrin in milk replacer) is “greater body weight”.
